Experimental data taken from ChEMBL document CHEMBL1201862, “PubChem BioAssay data set” (2004).
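Values below derive from 48-hour exposures of cells grown in 96-well plates, with endpoints linearly interpolated between the two concentrations bracketing the appropriate inhibition level. At the GI50, growth is halved.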 Activity calls are given as the source filed them. Cut-off read from the data, not from the text of the source: active = GI50 up to about 1.1 µM and inactive = higher.

Key:
Test in all cases: NCI tumour cell line growth inhibition, 48 h
HOP-92 = system: HOP-92
HL-60 = system: HL-60
RXF 393 = system: RXF 393
RPMI-8226 = system: RPMI-8226
OVCAR-4 = system: OVCAR-4
SK-MEL-5 = system: SK-MEL-5
786-0 = system: 786-0
UACC-257 = system: UACC-257
SK-MEL-28 = system: SK-MEL-28
NCI-H23 = system: NCI-H23
IGROV-1 = system: IGROV-1
ACHN = system: ACHN
OVCAR-3 = system: OVCAR-3
CAKI-1 = system: CAKI-1
SF-268 = system: SF-268
PC-3 = system: PC-3
MCF7 = system: MCF7
MDA-MB-435 = system: MDA-MB-435
HOP-62 = system: HOP-62

Measured: GI50

COc1ccc(S(=O)(=O)N(C)CC(=O)O)cc1
inactive: HOP-92 > 100 µM | HL-60 > 100 µM | RXF 393 > 100 µM | RPMI-8226 > 100 µM | OVCAR-4 > 100 µM | SK-MEL-5 > 100 µM | 786-0 > 100 µM | UACC-257 > 100 µM | SK-MEL-28 > 100 µM | NCI-H23 > 100 µM | IGROV-1 > 100 µM | ACHN > 100 µM | OVCAR-3 > 100 µM | CAKI-1 > 100 µM | SF-268 > 100 µM

C/C=C(/COC(C)=O)C(=O)OC1C=C(C=O)C(C)(C)C=C1C (configuration not stated)
inactive: HOP-92 > 100 µM | HL-60 45.1 µM | OVCAR-4 > 100 µM | PC-3 > 100 µM | SK-MEL-5 > 100 µM | 786-0 > 100 µM | UACC-257 > 100 µM | SK-MEL-28 > 100 µM | NCI-H23 > 100 µM | IGROV-1 96.6 µM | MCF7 87.7 µM | ACHN > 100 µM | CAKI-1 > 100 µM | SF-268 > 100 µM | MDA-MB-435 > 100 µM

O=C(NNC(=S)Nc1ccc(Br)cc1)c1cc(-c2ccccc2)nc2ccccc12
inactive: HOP-92 20 µM | RXF 393 18.4 µM | RPMI-8226 14.3 µM | OVCAR-4 19.8 µM | PC-3 20.1 µM | SK-MEL-5 15.8 µM | 786-0 19 µM | UACC-257 23.2 µM | HOP-62 20 µM | SK-MEL-28 21.1 µM | NCI-H23 23.6 µM | IGROV-1 37.8 µM | MCF7 18.4 µM | ACHN 34.8 µM | OVCAR-3 17 µM | CAKI-1 29.8 µM | SF-268 33.3 µM | MDA-MB-435 17.1 µM

O=S1(=O)OCCOS(=O)(=O)C1(F)Cc1ccccc1
inactive: HOP-92 > 100 µM | HL-60 > 100 µM | RXF 393 > 100 µM | RPMI-8226 > 100 µM | OVCAR-4 > 100 µM | PC-3 > 100 µM | SK-MEL-5 > 100 µM | 786-0 > 100 µM | HOP-62 > 100 µM | SK-MEL-28 > 100 µM | NCI-H23 > 100 µM | IGROV-1 > 100 µM | ACHN > 100 µM | OVCAR-3 > 100 µM | CAKI-1 > 100 µM | SF-268 > 100 µM | MDA-MB-435 > 100 µM

CCC1(CC)C(=O)CC[C@@]2(C)C1=CC[C@H]1[C@@H]3CC[C@H](O)[C@@]3(C)CC[C@@H]12
inactive: HOP-92 37.5 µM | HL-60 18.6 µM | RXF 393 36.6 µM | RPMI-8226 12.1 µM | OVCAR-4 34.8 µM | PC-3 30.3 µM | SK-MEL-5 47.3 µM | 786-0 15.5 µM | UACC-257 26.7 µM | HOP-62 19.1 µM | SK-MEL-28 > 100 µM | NCI-H23 48.9 µM | IGROV-1 37.8 µM | ACHN 40.4 µM | OVCAR-3 19.7 µM | CAKI-1 83.8 µM | SF-268 32.5 µM | MDA-MB-435 61 µM

OC1CSCCCSCCSCCCSC1
inactive: HOP-92 > 100 µM | RXF 393 > 100 µM | RPMI-8226 37.6 µM | OVCAR-4 > 100 µM | PC-3 > 100 µM | SK-MEL-5 > 100 µM | 786-0 > 100 µM | UACC-257 > 100 µM | HOP-62 > 100 µM | SK-MEL-28 > 100 µM | NCI-H23 > 100 µM | IGROV-1 > 100 µM | MCF7 > 100 µM | ACHN > 100 µM | OVCAR-3 > 100 µM | CAKI-1 > 100 µM | SF-268 > 100 µM | MDA-MB-435 > 100 µM

O=C(c1ccc2ccccc2c1)C1(I)S(=O)(=O)OCCOS1(=O)=O
inactive: HL-60 > 100 µM | RPMI-8226 > 100 µM | OVCAR-4 > 100 µM | PC-3 > 100 µM | SK-MEL-5 > 100 µM | 786-0 > 100 µM | HOP-62 > 100 µM | SK-MEL-28 > 100 µM | NCI-H23 > 100 µM | MCF7 > 100 µM | ACHN > 100 µM | OVCAR-3 > 100 µM | CAKI-1 > 100 µM | MDA-MB-435 > 100 µM

O=c1cc(NNc2cccc(Cl)c2)[nH]c(=O)[nH]1
inactive: HOP-92 18.5 µM | HL-60 19.5 µM | RXF 393 > 100 µM | RPMI-8226 20.3 µM | OVCAR-4 > 100 µM | PC-3 75.3 µM | SK-MEL-5 51.1 µM | 786-0 16.2 µM | UACC-257 44.3 µM | SK-MEL-28 95.9 µM | NCI-H23 59.8 µM | IGROV-1 > 100 µM | MCF7 1.88 µM | ACHN 38.9 µM | OVCAR-3 17.3 µM | CAKI-1 19.1 µM | SF-268 > 100 µM

C=C[C@@]1(C)CC(=O)[C@]2(O)[C@@]3(C)[C@@H](OC(C)=O)CCC(C)(C)[C@@H]3[C@H](O)[C@H](OC(C)=O)[C@@]2(C)O1
inactive: HOP-92 > 100 µM | OVCAR-4 > 100 µM | PC-3 > 100 µM | 786-0 83.6 µM | UACC-257 > 100 µM | HOP-62 > 100 µM | SK-MEL-28 > 100 µM | NCI-H23 > 100 µM | IGROV-1 > 100 µM | MCF7 > 100 µM | ACHN > 100 µM | OVCAR-3 > 100 µM | CAKI-1 > 100 µM | MDA-MB-435 > 100 µM

O=C1c2ccccc2-c2ccc(/N=N/c3c(O)ccc4ccccc34)cc21
inactive: HOP-92 > 100 µM | RXF 393 > 100 µM | RPMI-8226 > 100 µM | OVCAR-4 > 100 µM | PC-3 > 100 µM | SK-MEL-5 > 100 µM | 786-0 > 100 µM | UACC-257 > 100 µM | HOP-62 > 100 µM | SK-MEL-28 > 100 µM | NCI-H23 > 100 µM | IGROV-1 > 100 µM | OVCAR-3 > 100 µM | CAKI-1 > 100 µM | SF-268 > 100 µM | MDA-MB-435 33.6 µM

COc1ccc(C)c2c1N[C@](C)([C@]1(C)Nc3c(OC)ccc(C)c3C1=O)C2=O
inactive: HOP-92 38 µM | RXF 393 > 100 µM | RPMI-8226 > 100 µM | OVCAR-4 > 100 µM | PC-3 > 100 µM | SK-MEL-5 > 100 µM | 786-0 > 100 µM | UACC-257 > 100 µM | HOP-62 94.4 µM | SK-MEL-28 > 100 µM | NCI-H23 > 100 µM | IGROV-1 > 100 µM | MCF7 > 100 µM | ACHN > 100 µM | OVCAR-3 > 100 µM | CAKI-1 > 100 µM | SF-268 51.6 µM | MDA-MB-435 44.7 µM

O=c1cc2oc3ccc4ccccc4c3cc-2c(=O)[nH]1
inactive: HL-60 1.51 µM | RPMI-8226 2.96 µM | OVCAR-4 22.3 µM | PC-3 10.6 µM | SK-MEL-5 15.5 µM | 786-0 13.8 µM | UACC-257 16.4 µM | HOP-62 10.8 µM | SK-MEL-28 17.9 µM | NCI-H23 1.42 µM | IGROV-1 14.2 µM | MCF7 19.1 µM | ACHN 17 µM | OVCAR-3 11.4 µM | CAKI-1 15.3 µM | SF-268 12.7 µM | MDA-MB-435 11 µM
